Paper PMC8486139, “A new phenothiazine derivate is active against Clostridioides difficile and shows low cytotoxicity” (PLoS ONE, 2021)
Read-outs that look alike come from different tables or passages of the source.

Experiments:
[1] = test system: C. difficile ATCC 43255; test: Minimum bactericidal concentration (MBC), plating from MIC wells; conditions: C. difficile ATCC 43255, ≥3 log reduction of inoculum
Experimental: Minimum bactericidal concentration (MIC) values were defined as the lowest concentrations of test compounds causing ≥3 log reductions of the initial cell inocula (∼ 10^5 CFU/mL in the final assay). Briefly, 100 μl from each well of the MIC assay (after incubation) were plates on ChromID® plates. After incubation for 24 h, viable counts were enumerated on ChromID® plates. Both the MIC and MBC were conducted with three biological replicates.

[2] = test system: Caco-2 cell monolayers; test: LDH release assay; type: cell-based
Experimental: For analysis of the LDH activity, the samples taken from the apical compartment after the exposure experiment were diluted 5-fold and analyzed in the LDH assay according to manufacturer’s instructions. Briefly, the assay consisted of mixing the diluted samples with different assay reagents followed by incubation at room temperature for 30 min and the absorbance at 492 nm as a measure for LDH activity. A lysate of Caco-2 monolayers (prepared by suspending Caco-2 cell monolayers in purified water) was included as a positive control for maximal response in the assay.

[3] = test system: fecal bacterial count; test: Four-day oral treatment: CFU per gram feces by 16S rRNA qPCR; type: in vivo; conditions: mice; for average CFU/g fecal sample after treatment: four days
[4] = test system: Caco-2 cell monolayers
[5] = test system: gastrointestinal microbiota; conditions: mice
[6] = test system: Methicillin resistant Staphylococcus aureus (MRSA); conditions: cited from earlier work
[7] = test system: MRSA; conditions: cited from earlier work
[8] = test system: Caco-2 cell monolayers; test: MTS/PMS cell proliferation (metabolic activity) assay; type: cell-based
Experimental: The cell proliferation assay (MTS/PMS; [3-(4,5-dimethylthiazol-2-yl)-5-(3-carboxymethoxyphenyl)-2-(4-sulfophenyl)-2H-tetrazolium, inner salt; MTS] and an electron coupling reagent (phenazine methosulfate) PMS) assay was performed by incubating the Caco-2 cell monolayers with 400 μL of a PMS/MTS solution in the apical compartment and 500 μL supplemented HBSS in the basolateral chamber (according to manufacturer’s instructions) for 60 minutes at 37°C and circular rotation (50 rpm). After incubation, 2×100 μL samples were taken from each monolayer and the absorbance at 492 nm in a 96-well plate.

[9] = test system: C. difficile ATCC 43255; test: Minimal inhibition concentration (MIC) in 96-well microtitre plates; type: cell-based, Clostridioides difficile; conditions: C. difficile ATCC 43255, 24 h anaerobic incubation
Source text: C. difficile ATCC 43255, previously isolated from an abdominal wound, was used to assess the anti-clostridioides activity of JBC 1847. The strain was stored in reinforced clostridial medium (Oxoid, Roskilde, Denmark) in 15% glycerol at -[…] until use and grown anaerobically on ChromID® C. difficile plates (bioMérieux, Ballerup, Denmark).

[10] = test system: NMRI female mice
[11] = test system: C. difficile; conditions: previously shown; cited from earlier work

## CC(C)=CCCC(C)CC[N+](C)(C)CCCN1c2ccccc2Sc2ccccc21 (stereo not shown) [JBC 1847]
[1]
  MBC: 4 µg/mL
[2]; 29 μg/mL (50 μM)
  LDH release compared to buffer control: significantly higher
[2]; 29 μg/mL (50 μM), listed as JBC1 8473
  LDH release compared to buffer control: statistically significant increase
[2]; 58.1 μg/ml in Fig 3
  LDH release compared to buffer control: significantly higher
[2]; 58.1 μg/ml in Fig 3, listed as JBC1 8473
  LDH release compared to buffer control: statistically significant increase
[3]; 20 mg/kg bw
  average CFU/g fecal sample after treatment: 4.4 ×10^9 CFU/g
[3]; 100 mg/kg bw
  average CFU/g fecal sample after treatment: 6.8 × 10^9 CFU/g
[3]; p = 0.51
  change in CFU/g fecal sample after treatment: no significant changes
[4]; concentrations up to seven times MIC
  effect on TEER: did not affect the TEER negatively
[4]; concentrations up to seven times the minimal bactericidal concentration
  cytotoxicity in Caco-2 cell-line assays: indication of toxicity was not observed
[5]; especially small intestine (Fig 5)
  tendency in Lactobacillus spp abundance: concentration-depended increase
[5]; exposure trial
  consistency of the fecal material: No changes
[6]
  MIC against MRSA compared to the mother compound, promazine: lower the minimal inhibition concentration (MIC) remarkably
[7]
  bacterial load of MRSA in wound model: highly effective in decreasing the bacterial load
[8]; 29 μg/mL
  MTS/PMS response vs buffer controls: not significantly reduced
[8]; 58.1 μg/mL (100 μM)
  MTS/PMS response (metabolic activity) vs buffer control: statistically significant reduction
[9]
  MIC: 4 µg/mL
[10]; mice, oral
  dose tolerated without any clinical signs of discomfort: up to 100 mg/kg bw
[10]; mouse, in vivo, 25 mg/kg
  clinical score of discomfort: 1
[10]; mouse, in vivo, 100 mg/kg
  clinical score of discomfort: 0
[10]; mouse, in vivo, po, 100 mg/kg
  tolerance of two doses: tolerated well

## CSc1ccc2c(c1)N(CCC1CCCCN1C)c1ccccc1S2 (stereo not shown) [Thioridazine]
[11]
  antimicrobial activity against C. difficile: antimicrobial activity
